Experimental findings from a melting point compilation (Tetko et al.; mined from patent text by program, amines drawn as free bases though some values may be those of a salt) are described below.

Molecules are shown by their SMILES.

Broadly, the melting point is the temperature of the solid-liquid transition.

Consider `CC1(C)CNc2cc(C(F)(F)F)ccc2C1=O`, for which the melting point was 121 to 122 °C.

`O=C(O)c1cc(OCc2ccccc2)c(C(=O)c2c(OCc3ccccc3)cccc2C(=O)OCc2ccccc2)c(OCc2ccccc2)c1` gave a melting point of 151 to 156 °C.

Turning to `CN1CCC(=O)C(=C(c2ccccc2)c2ccccc2)C1`, the melting point is 129 to 131 °C.

In turn, `Nn1c(=O)c2cc(F)c(Cl)nc2n(C2CC2)c1=O` gave a melting point of 192 to 194 °C.

`Cn1c(CC#N)ccc1C(=O)c1ccc(C(F)(F)F)cc1` gave a melting point of 95 to 97.5 °C.

In the case of `CCCOc1ccccc1Nc1ncc(C(=O)O)c(=O)[nH]1`, the melting point was in the range of 202 to 204 °C.

Turning to `Cc1cccc(C)c1NS(=O)(=O)c1cc(S(=O)(=O)Nc2c(C)cccc2C)c2cc(O)ccc2c1`, the melting point is 162 to 164 °C.

In turn, `O=C1c2ccccc2CN1CCSc1ccncc1` had a melting point of 86 to 87 °C.

`CSC(=Nc1nc(C)cc(C)n1)NS(=O)(=O)c1ccccc1-c1ccccc1` gave a melting point of 154 to 157 °C.

As for `CC(=O)C(=CNN1C=CC=NC1c1ccncc1)C(C)=O` (stereo not given), the melting point lay in the range of 182 to 183 °C.

Regarding `CC1(C)C(=O)N(c2ccnc(NC(=O)NCc3ccccn3)c2)c2cccnc21`, the melting point is 160 to 163 °C.

`O=C1Nc2ccccc2C1C(=O)C(F)(F)F` (stereo not given) registered a melting point of 184 °C.

Regarding `CC(C)Cn1c(CCl)c(-c2ccccc2)c2cc(Br)ccc2c1=O`, the melting point was 145 to 146 °C.

Take `COC(=O)C=Cc1cc2ccccc2nc1Cl`: the melting point is 153 to 154 °C.

In turn, `O=[N+]([O-])c1ccc(Oc2ccc(C(F)(F)F)cc2Cl)cc1NCP(=O)(O)O` displayed a melting point of 148 to 150 °C.

`Cc1cc2c(c(C)c1S(=O)(=O)C[N+](=O)[O-])CCCO2` returned a melting point of 136 to 138 °C.

For `CCOC(=O)CNC(=O)[C@@H](C)NC(=O)CNC(=O)CSC(=O)c1ccccc1`, the melting point was 137 °C.

In the case of `CCOC(=O)c1cc(=O)c2ccc(C)cc2o1`, the melting point is 62 to 64 °C.

Turning to `O=C(O)Cn1cc(Cc2nc3c(F)c(F)cc(F)c3s2)c2cc(Oc3ccccc3)ccc21`, the melting point fell in the range of 128 to 130 °C.

`CN1C(=O)[C@@](NC(=O)Nc2cccc(Nc3nnn[nH]3)c2)(C2CCCCC2)N=Cc2ccccc21` registered a melting point of 190 to 193 °C.

With `Fc1cc(N2CCNCC2)c2ncccc2c1`, the melting point was found to be 103 °C.

`CN(C)CCNc1ccc([N+](=O)[O-])c2sc3ccccc3c(=O)c12`: the melting point is 177 to 179 °C.

`COC(=O)c1ccc2c(c1)C(Oc1ccccn1)C(O)C(C)(C)O2` (stereo not given) gave a melting point of 202 to 204 °C.

Regarding `CC(C)(C)OCOc1cc(NC(=O)NC(=O)c2ccc(C#N)cc2)ccc1OCC(=O)OC(C)(C)C`, the melting point lay in the range of 161 to 162 °C.

Regarding `CCCCc1cn2ccccc2c1S(=O)(=O)c1ccc(OCCCBr)cc1`, the melting point was 119 °C.

As to `Cc1ccccc1C(=O)Nc1ccc(-n2nc(C(F)(F)F)cc2C(F)(F)F)cc1`, the melting point fell in the range of 165 to 167 °C.

As to `Nc1ncc(S(=O)c2ccc(F)cc2F)s1` (stereo not given), the melting point is 171 to 172 °C.

The compound `CCCc1c(O)c(C(C)=O)cc2c(C)cc(C(=O)O)nc12` showed a melting point of 125 to 127 °C.

In turn, `CCOc1cc(OCCCCc2cn(-c3ccc(C(F)(F)F)cn3)nc2OCC)ccc1CCC(=O)O` yielded a melting point of 101 to 102 °C.

The compound `CCOC(=O)c1cc2cc(-c3ccc(C(C)=O)cc3)ccc2o1` yielded a melting point of 105 to 107 °C.

`N=c1cc(NCCCCc2c[nH]cn2)ccs1` yielded a melting point of 209 to 211 °C.

`Cc1oc(-c2ccccc2)nc1COc1ccc(COc2ccc3ccccc3c2C=O)cc1` showed a melting point of 141 to 142 °C.

The compound `Cc1nnc(NCCCN2CCCC2=O)c2c1cc1ccccn12` displayed a melting point of 257 to 258 °C.

`CSc1c(F)cc(C(=O)CBr)cc1F`: the melting point lay in the range of 30.5 to 33.2 °C.

`COc1cc2c(c(-c3cc(Cl)ccc3Cl)c1)OC(CN)C2` (stereo not given) yielded a melting point of 140 to 142 °C.
